The results in this text go back to patent publication US20250368619A1, “SUBSTITUTED TETRAHYDROCYCLOHEPTA[E]INDOLE DERIVATIVES, PROCESSES FOR THEIR PREPARATION AND THERAPEUTIC USES THEREOF” (SANOFI, priority 2022, published 2025).

The structures appear in SMILES notation.

This test deals with T1, ERα (Homo sapiens, UniProt P03372).
T1 construct: host or cells: MCF7
T1 sequence (P03372 1-595): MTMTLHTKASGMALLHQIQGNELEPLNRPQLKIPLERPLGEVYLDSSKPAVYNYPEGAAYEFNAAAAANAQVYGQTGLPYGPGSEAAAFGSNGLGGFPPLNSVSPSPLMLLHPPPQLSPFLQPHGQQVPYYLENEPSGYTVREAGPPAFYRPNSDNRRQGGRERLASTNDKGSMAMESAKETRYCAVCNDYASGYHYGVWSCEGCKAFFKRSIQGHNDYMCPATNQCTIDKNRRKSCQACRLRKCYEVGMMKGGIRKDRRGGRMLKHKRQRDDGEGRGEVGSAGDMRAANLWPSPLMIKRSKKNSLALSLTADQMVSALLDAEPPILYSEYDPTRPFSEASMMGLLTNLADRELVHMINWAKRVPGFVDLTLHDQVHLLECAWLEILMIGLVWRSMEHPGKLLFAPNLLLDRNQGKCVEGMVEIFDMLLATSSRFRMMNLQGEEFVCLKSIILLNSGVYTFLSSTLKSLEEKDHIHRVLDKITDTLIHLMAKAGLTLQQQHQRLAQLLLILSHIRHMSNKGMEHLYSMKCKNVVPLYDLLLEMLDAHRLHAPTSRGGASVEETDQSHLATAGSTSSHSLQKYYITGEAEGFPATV
The test can be described thus: Estrogen receptor degradation activity: breast cancer cell ERα in cell western assay in MCF7 cells. The class given is cell-based. To be noted: 4 hours, relative to fulvestrant 0.1 μM positive control. The protocol:
Test: Estrogen receptor degradation activity
Said test involves measuring the in vitro degradation activity of the compounds of the table 1.
The measurements of the degradation activities were made using a breast cancer cell ERα in cell western assay as described hereunder.
MCF7 cells (ATCC) were seeded in 384 wells microplate (collagen coated) at a concentration of 10000 cells/30 μL per well in red phenol free MEM alpha medium (invitrogen) containing 5% charcoal dextran striped FBS. The following day, 9 points serial 1:5 dilution of each compound was added to the cells in 2.5 μL at final concentrations ranging from 0.3-0.0000018 μM (in table 2), or 0.1 μM for fulvestrant (using as positive control). At 4 hours post compound addition the cells were fixed by adding 25 μL of formalin (final concentration 5% formalin containing 0.1% triton) for 10 minutes at RT and then washed twice with PBS. Then, 50 μL of LI-COR blocking buffer containing 0.1% Triton was added to plate for 30 minutes at RT. LI-COR blocking buffer was removed and cells were incubated overnight at cold room with 50 μL anti-ER rabbit monoclonal antibody (Thermo scientific MA1-39540) diluted at 1:1000 in LI-COR blocking buffer containing 0.1% tween-20. Wells which were treated with blocking buffer but no antibody were used as background control. Wells were washed twice with PBS (0.1% tween-20) and incubated at 37° C. for 60 minutes in LI-COR (0.1% tween-20) containing goat anti-rabbit antibody Alexa 488 (1:1000) and Syto-64 a DNA dye (2 μM final concentration). Cells were then washed 3 times in PBS and scanned in ACUMEN explorer (TTP-Labtech). Integrated intensities in the green fluorescence and red fluorescence were measured to determine the levels of ERα and DNA respectively.
The degradation activity with respect to estrogen receptors in this test is given by the concentration which degrades 50% of the estrogen receptor (or IC50) in nM.
The % of ERα levels decrease were determined as follows: % inhibition=100*(1−(sample−fulvestrant:DMSO−fulvestrant)).
Turning to `N#Cc1ccccc1C1=C(c2ccc(CC3CN(CCCF)C3)cc2)c2ccc3[nH]ccc3c2CCC1` [Compound 12, 2-(6-(4-((1-(3-fluoropropyl)azetidin-3-yl)methyl)phenyl)-3,8,9,10-tetrahydrocyclohepta[e]indol-7-yl)benzonitrile], the “% Degradation At 0.3 μM” value was 85%.

As to `N#Cc1ccc(C2=C(c3ccc(CC4CN(CCCF)C4)cc3)c3ccc4[nH]ccc4c3CCC2)cc1` [Compound 13, 4-(6-(4-((1-(3-fluoropropyl)azetidin-3-yl)methyl)phenyl)-3,8,9,10-tetrahydrocyclohepta[e]indol-7-yl)benzonitrile], the “% Degradation At 0.3 μM” value was found to be 72%.

On to `COc1cc(C2=C(c3ccc(CC4CN(CCCF)C4)cc3)c3ccc4[nH]ccc4c3CCC2)ccn1` [Compound 14, 6-(4-((1-(3-fluoropropyl)azetidin-3-yl)methyl)phenyl)-7-(2-methoxypyridin-4-yl)-3,8,9,10-tetrahydrocyclohepta[e]indole], for which the “% Degradation At 0.3 μM” value turned out to be 91%.

On to `COc1ccc(C2=C(c3ccc(CC4CN(CCCF)C4)cc3)c3ccc4[nH]ccc4c3CCC2)cn1` [Compound 15, 6-(4-((1-(3-fluoropropyl)azetidin-3-yl)methyl)phenyl)-7-(6-methoxypyridin-3-yl)-3,8,9,10-tetrahydrocyclohepta[e]indole], for which the “% Degradation At 0.3 μM” value is reported as 91%.

Consider `FCCCN1CC(Cc2ccc(C3=C(C4=CCOCC4)CCCc4c3ccc3[nH]ccc43)cc2)C1` [Compound 16, 7-(3,6-dihydro-2H-pyran-4-yl)-6-(4-((1-(3-fluoropropyl)azetidin-3-yl)methyl)phenyl)-3,8,9,10-tetrahydrocyclohepta[e]indole], for which the “% Degradation At 0.3 μM” value is 74%.

On to `OC/C=C/C1=C(c2ccc(CC3CN(CCCF)C3)cc2)c2ccc3[nH]ccc3c2CCC1` [Compound 17, (E)-3-(6-(4-((1-(3-fluoropropyl)azetidin-3-yl)methyl)phenyl)-3,8,9,10-tetrahydrocyclohepta[e]indol-7-yl)prop-2-en-1-ol], for which the “% Degradation At 0.3 μM” value came to 69%.

`CC(C)(O)/C=C/C1=C(c2ccc(CC3CN(CCCF)C3)cc2)c2ccc3[nH]ccc3c2CCC1` [Compound 18, (E)-4-(6-(4-((1-(3-fluoropropyl)azetidin-3-yl)methyl)phenyl)-3,8,9,10-tetrahydrocyclohepta[e]indol-7-yl)-2-methylbut-3-en-2-ol]: the “% Degradation At 0.3 μM” value is listed as 77%.

Take `OCc1cccc(C2=C(c3ccc(CC4CN(CCCF)C4)cc3)c3ccc4[nH]ccc4c3CCC2)c1` [Compound 19, (3-(6-(4-((1-(3-fluoropropyl)azetidin-3-yl)methyl)phenyl)-3,8,9,10-tetrahydrocyclohepta[e]indol-7-yl)phenyl)methanol]: the “% Degradation At 0.3 μM” value turned out to be 71%.

In the case of `OCc1ccc(C2=C(c3ccc(CC4CN(CCCF)C4)cc3)c3ccc4[nH]ccc4c3CCC2)cc1` [Compound 20, (4-(6-(4-((1-(3-fluoropropyl)azetidin-3-yl)methyl)phenyl)-3,8,9,10-tetrahydrocyclohepta[e]indol-7-yl)phenyl)methanol], the “% Degradation At 0.3 μM” value came out at 76%.

As for `OCCc1cccc(C2=C(c3ccc(CC4CN(CCCF)C4)cc3)c3ccc4[nH]ccc4c3CCC2)c1` [Compound 21, 2-(3-(6-(4-((1-(3-fluoropropyl)azetidin-3-yl)methyl)phenyl)-3,8,9,10-tetrahydrocyclohepta[e]indol-7-yl)phenyl)ethan-1-ol], the “% Degradation At 0.3 μM” value stood at 65%.

As to `O=C(O)c1cccc(C2=C(c3ccc(CC4CN(CCCF)C4)cc3)c3ccc4[nH]ccc4c3CCC2)c1` [Compound 22, 3-(6-(4-((1-(3-fluoropropyl)azetidin-3-yl)methyl)phenyl)-3,8,9,10-tetrahydrocyclohepta[e]indol-7-yl)benzoic acid], the “% Degradation At 0.3 μM” value was determined as 68%.

On to `O=C(O)C(F)(F)F.O=C(O)c1ccc(C2=C(c3ccc(CC4CN(CCCF)C4)cc3)c3ccc4[nH]ccc4c3CCC2)cc1` [Compound 23, 4-(6-(4-((1-(3-fluoropropyl)azetidin-3-yl)methyl)phenyl)-3,8,9,10-tetrahydrocyclohepta[e]indol-7-yl)benzoic acid, 2,2,2-trifluoroacetic acid], for which the “% Degradation At 0.3 μM” value was determined as 80%.

In the case of `O=C(O)/C=C/C1=C(c2ccc(CC3CN(CCCF)C3)cc2)c2ccc3[nH]ccc3c2CCC1` [Compound 24, (E)-3-(6-(4-((1-(3-fluoropropyl)azetidin-3-yl)methyl)phenyl)-3,8,9,10-tetrahydrocyclohepta[e]indol-7-yl)acrylic acid], the “% Degradation At 0.3 μM” value turned out to be 92%.

As to `OCCCC1=C(c2ccc(CC3CN(CCCF)C3)cc2)c2ccc3[nH]ccc3c2CCC1` [Compound 25, 3-(6-(4-((1-(3-fluoropropyl)azetidin-3-yl)methyl)phenyl)-3,8,9,10-tetrahydrocyclohepta[e]indol-7-yl)propan-1-ol], the “% Degradation At 0.3 μM” value turned out to be 75%.

For `Cc1c(Cl)cccc1C1=C(c2ccc(OC3CN(CCCF)C3)cc2)c2ccc3[nH]ccc3c2CCC1` [Compound 26, 7-(3-chloro-2-methylphenyl)-6-(4-((1-(3-fluoropropyl)azetidin-3-yl)oxy)phenyl)-3,8,9,10-tetrahydrocyclohepta[e]indole], the “% Degradation At 0.3 μM” value stood at 91%.

As for `Cc1c(Cl)cccc1C1=C(c2ccc(NC3CN(CCCF)C3)cc2)c2ccc3[nH]ccc3c2CCC1` [Compound 27, N-(4-(7-(3-chloro-2-methylphenyl)-3,8,9,10-tetrahydrocyclohepta[e]indol-6-yl)phenyl)-1-(3-fluoropropyl)azetidin-3-amine], the “% Degradation At 0.3 μM” value was determined as 91%.

Take `Cc1c(Cl)cccc1C1=C(c2ccc(N[C@H]3CCN(CCCF)C3)cc2)c2ccc3[nH]ccc3c2CCC1` [Compound 28, (S)-N-(4-(7-(3-chloro-2-methylphenyl)-3,8,9,10-tetrahydrocyclohepta[e]indol-6-yl)phenyl)-1-(3-fluoropropyl)pyrrolidin-3-amine]: the “% Degradation At 0.3 μM” value turned out to be 91%.

In the case of `Cc1c(Cl)cccc1C1=C(c2ccc(/C=C3/CCN(CCCF)C3)cc2)c2ccc3[nH]ccc3c2CCC1` [Compound 29, (Z)-7-(3-chloro-2-methylphenyl)-6-(4-((1-(3-fluoropropyl)pyrrolidin-3-ylidene)methyl)phenyl)-3,8,9,10-tetrahydrocyclohepta[e]indole], the “% Degradation At 0.3 μM” value is 91%.
